pEC50: −log10 of the molar value.
Molecular target: T1, human GPR119 (Homo sapiens, UniProt Q8TDV5)
T1 construct: expressed in transfected cells; host or cells: HEK293 (transient transfection, Lipofectamine 2000)
T1 sequence (Q8TDV5 1-335): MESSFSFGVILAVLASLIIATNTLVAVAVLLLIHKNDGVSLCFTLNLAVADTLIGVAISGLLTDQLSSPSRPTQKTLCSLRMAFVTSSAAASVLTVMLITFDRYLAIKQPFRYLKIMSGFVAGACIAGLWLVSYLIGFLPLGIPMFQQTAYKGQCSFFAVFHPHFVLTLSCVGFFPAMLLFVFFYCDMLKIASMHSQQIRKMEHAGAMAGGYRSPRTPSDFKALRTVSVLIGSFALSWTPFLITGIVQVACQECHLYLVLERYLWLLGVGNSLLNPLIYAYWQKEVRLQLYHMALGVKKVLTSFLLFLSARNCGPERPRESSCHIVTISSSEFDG
Experiment: In vitro cyclic AMP assay (Cisbio HTRF) in HEK293 cells transfected with human GPR119
Format: cell-based
Conditions: cAMP; for activation at 10 µM: 1 h, % Induction @ 10 μM; for pEC50: Emax varies between 65 to 80%
Method: A. In Vitro Cyclic AMP Assay:
cAMP measurements were done using a Cisbio dynamic 2 HTRF kit (Cisbio, Bedford, Mass.) according to the manufacturer's protocol. Briefly, HEK293 cells (0.2×10^6/well) were plated in a 24 well plate and incubated overnight at 37° C. Cells were transfected with either empty vector DNA or human GPR119 expression plasmid DNA using Lipofectamine 2000 (Invitrogen). After 24 h, transfected cells were harvested, counted and plated at 1000 cells/5 ul in a black 384 welled small volume plate. Cells were treated with desired concentrations of compounds and incubated for 60 min at room temperature. Lysis buffer containing cAMP-d2 and cryptate conjugate were added and incubated for 1 h. HRTF ratio was measured on a microplate reader (BMG Labtech., Germany) at an excitation wavelength of 337 nm and emission wavelengths of 665 and 620 nm with an integration time of 400 μsec. Data were analyzed using Graphpad Prism (Graphpad software; San Diego Calif.) for EC50 determination.
The results are as given in Table I as % Induction@ 10 μM, Table II as % Induction@ 10 μM and EC 50 in nM

Row | Structure (SMILES) | activation at 10 µM (Table I) | pEC50 (Table I) | activation at 10 µM (Table II) | pEC50 (Table II)
1 | CCc1cnc(N2CCC(c3nc4cc(-c5ccc(-n6cnnn6)cc5F)ccc4o3)CC2)nc1 [EXAMPLE-16, 2-[1-(5-ethylpyrimidin-2-yl)piperidin-4-yl]-5-[2-fluoro-4-(1H-tetrazol-1-yl)phenyl]benzo[d]oxazole] | 43.7% | – | – | –
2 | CC(C)(C)OC(=O)N1CCC(c2nc3cc(-c4ccc(-c5nnn[nH]5)c(F)c4)ccc3o2)CC1 [EXAMPLE-19, Tert-butyl 4-{5-[3-fluoro-4-(1H-tetrazol-5-yl)phenyl]benzo[d]oxazol-2-yl}piperidine-1-carboxylate] | 37.2% | – | – | –
3 | CC(C)(C)OC(=O)N1CCC(c2nc3cc(-c4ccc(C(N)=O)c(Cl)c4)ccc3o2)CC1 [EXAMPLE-20, Tert-butyl 4-[5-(4-carbamoyl-3-chlorophenyl)benzo[d]oxazol-2-yl]piperidine-1-carboxylate] | 73.9% | 7.30 to 7.60 | – | –
4 | CC(C)(C)OC(=O)N1CCC(c2nc3cc(-c4ccc(C(N)=O)c(F)c4)ccc3o2)CC1 [EXAMPLE-21, Tert-butyl 4-[5-(4-carbamoyl-3-fluorophenyl)benzo[d]oxazol-2-yl]piperidine-1-carboxylate] | 59% | 7.00 to 7.30 | – | –
5 | O=C(OC1CCC1)N1CCC(c2nc3cc(-c4ccc(-n5cnnn5)cc4F)ccc3o2)CC1 [EXAMPLE-23, Cyclobutyl 4-{5-[2-fluoro-4-(1H-tetrazol-1-yl)phenyl]benzo[d]oxazol-2-yl}piperidine-1-carboxylate] | 69.6% | 7.30 to 7.60 | – | –
6 | CCC(C)OC(=O)N1CCC(c2nc3cc(-c4ccc(-n5cnnn5)cc4F)ccc3o2)CC1 (stereo not drawn) [EXAMPLE-24, Sec-butyl 4-{5-[2-fluoro-4-(1H-tetrazol-1-yl)phenyl]benzo[d]oxazol-2-yl}piperidine-1-carboxylate] | 67.5% | ≥ 7.60 | – | –
7 | Fc1cc(-n2cnnn2)ccc1-c1ccc2oc(C3CCNCC3)nc2c1 [EXAMPLE-26, 5-[2-fluoro-4-(1H-tetrazol-1-yl)phenyl]-2-(piperidin-4-yl)benzo[d]oxazole] | 74% | – | – | –
8 | CC(C)OC(=O)N1CCC(c2nc3cc(-c4ccc(C(F)(F)F)cc4)ccc3o2)CC1 [EXAMPLE-27, Isopropyl 4-{5-[4-(trifluoromethyl)phenyl]benzo[d]oxazol-2-yl}piperidine-1-carboxylate] | 46.5% | – | – | –
9 | CC(C)OC(=O)N1CCC(c2nc3cc(-c4ccc(C(F)F)cc4)ccc3o2)CC1 [EXAMPLE-29, Isopropyl 4-{5-[4-(difluoromethyl)phenyl]benzo[d]oxazol-2-yl}piperidine-1-carboxylate] | 78.6% | 7.30 to 7.60 | – | –
10 | CC(C)OC(=O)N1CCC(c2nc3cc(-c4ccc(C(N)=O)c(Cl)c4)ccc3o2)CC1 [EXAMPLE-30, Isopropyl 4-[5-(4-carbamoyl-3-chlorophenyl)benzo[d]oxazol-2-yl]piperidine-1-carboxylate] | 62.2% | 6.00 to 6.30 | – | –
11 | CC(C)C(=O)N1CCC(c2nc3cc(-c4ccc(-n5cnnn5)cc4F)ccc3o2)CC1 [EXAMPLE-32, 1-{4-[5-(2-fluoro-4-(1H-tetrazol-1-yl)phenyl)benzo[d]oxazol-2-yl]piperidin-1-yl}-2-methylpropan-1-one] | 63.9% | 7.00 to 7.30 | – | –
12 | CC(C)(C)OC(=O)N1CC=C(c2cc3cc(-c4ccc(C(N)=O)c(F)c4)ccc3o2)CC1 [EXAMPLE-52, Tert-butyl 4-[5-(4-carbamoyl-3-fluorophenyl)benzofuran-2-yl]-5,6-dihydropyridine-1(2H)-carboxylate] | 68.4% | 6.30 to 7.00 | – | –
13 | CC(C)(C)OC(=O)N1CC=C(c2ccc3[nH]c(-c4ccc(S(C)(=O)=O)cc4F)nc3c2)CC1 [EXAMPLE-56, Tert-butyl 4-{2-[2-fluoro-4-(methylsulfonyl)phenyl]-1H-benzo[d]imidazol-5-yl}-5,6-dihydropyridine-1(2H)-carboxylate] | – | – | 38.5% | –
14 | CC(C)(C)OC(=O)N1CC=C(c2ccc3oc(-c4ccc(S(C)(=O)=O)cc4F)nc3c2)CC1 [EXAMPLE-59, Tert-butyl 4-{2-[2-fluoro-4-(methylsulfonyl)phenyl]benzo[d]oxazol-5-yl}-5,6-dihydropyridine-1(2H)-carboxylate] | – | – | 63.8% | –
15 | CC(C)(C)OC(=O)N1CCC(c2ccc3oc(-c4ccc(S(C)(=O)=O)cc4F)nc3c2)CC1 [EXAMPLE-60, Tert-butyl 4-{2-[2-fluoro-4-(methylsulfonyl)phenyl]benzo[d]oxazol-5-yl}piperidine-1-carboxylate] | – | – | 72.8% | 7.30 to 7.60
16 | CC(C)(C)OC(=O)N1CCC(c2cc(F)c3oc(-c4ccc(S(C)(=O)=O)cc4F)nc3c2)CC1 [EXAMPLE-63, Tert-butyl 4-{7-fluoro-2-[2-fluoro-4-(methylsulfonyl)phenyl]benzo[d]oxazol-5-yl}piperidine-1-carboxylate] | – | – | 56.6% | –

The remaining lines, values ahead:

Row | activation at 10 µM (Table I) | pEC50 (Table I) | activation at 10 µM (Table II) | pEC50 (Table II) | Structure (SMILES)
17 | 77.7% | 6.30 to 7.00 | – | – | CC(C)(C)OC(=O)N1CCC(c2nc3cc(-c4ccc(-n5cnnn5)c(F)c4)ccc3o2)CC1 [EXAMPLE-15, Tert-butyl 4-{5-[3-fluoro-4-(1H-tetrazol-1-yl)phenyl]benzo[d]oxazol-2-yl}piperidine-1-carboxylate]
18 | 41.5% | – | – | – | CC(C)(C)OC(=O)N1CCC(c2nc3cc(-c4ccc(C#N)c(F)c4)ccc3o2)CC1 [EXAMPLE-17, Tert-butyl 4-[5-(4-cyano-3-fluorophenyl)benzo[d]oxazol-2-yl]piperidine-1-carboxylate]
19 | 36.4% | – | – | – | CC(C)OC(=O)N1CCC(c2nc3cc(-c4ccc(-n5cnnn5)c(F)c4)ccc3o2)CC1 [EXAMPLE-18, Isopropyl 4-{5-[3-fluoro-4-(1H-tetrazol-1-yl)phenyl]benzo[d]oxazol-2-yl}piperidine-1-carboxylate]
20 | 64.5% | – | – | – | CC(C)Oc1ccc(-c2ccc3oc(C4CCN(C(=O)OC(C)(C)C)CC4)nc3c2)cc1F [EXAMPLE-22, Tert-butyl 4-[5-(3-fluoro-4-isopropoxyphenyl)benzo[d]oxazol-2-yl]piperidine-1-carboxylate]
21 | 63.4% | – | – | – | CCC(CC)OC(=O)N1CCC(c2nc3cc(-c4ccc(-n5cnnn5)cc4F)ccc3o2)CC1 [EXAMPLE-25, Pentan-3-yl 4-{5-[2-fluoro-4-(1H-tetrazol-1-yl)phenyl]benzo[d]oxazol-2-yl}piperidine-1-carboxylate]
22 | 45.4% | – | – | – | CC(C)OC(=O)N1CCC(c2nc3cc(-c4ccc(C=O)cc4)ccc3o2)CC1 [EXAMPLE-28, Isopropyl 4-[5-(4-formylphenyl)benzo[d]oxazol-2-yl]piperidine-1-carboxylate]
23 | 80.4% | ≥ 7.60 | – | – | CC(C)OC(=O)N1CCC(c2nc3cc(-c4ccc(C(N)=O)c(F)c4)ccc3o2)CC1 [EXAMPLE-31, Isopropyl 4-[5-(4-carbamoyl-3-fluorohenyl)benzo[d]oxazol-2-yl]piperidine-1-carboxylate]
24 | 39.9% | – | – | – | CCCS(=O)(=O)N1CCC(c2nc3cc(-c4ccc(C(N)=O)c(F)c4)ccc3o2)CC1 [EXAMPLE-53, 2-fluoro-4-{2-[1-(propylsulfonyl)piperidin-4-yl]benzo[d]oxazol-5-yl}benzamide]
25 | – | – | 47% | – | CC(C)(C)OC(=O)N1CCC(c2ccc3[nH]c(-c4ccc(S(C)(=O)=O)cc4F)nc3c2)CC1 [EXAMPLE-57, Tert-butyl 4-{2-[2-fluoro-4-(methylsulfonyl)phenyl]-1H-benzo[d]imidazol-5-yl}piperidine-1-carboxylate]
26 | – | – | 32.2% | – | CCc1cnc(N2CCC(c3ccc4[nH]c(-c5ccc(S(C)(=O)=O)cc5F)nc4c3)CC2)nc1 [EXAMPLE-58, 5-[1-(5-ethylpyrimidin-2-yl)piperidin-4-yl]-2-[2-fluoro-4-(methylsulfonyl)phenyl]-1H-benzo[d]imidazole]
27 | – | – | 29.8% | – | CS(=O)(=O)c1ccc(-c2nc3cc(C4CCNCC4)ccc3o2)c(F)c1 [EXAMPLE-61, 2-[2-fluoro-4-(methylsulfonyl)phenyl]-5-(piperidin-4-yl)benzo[d]oxazole 2,2,2-trifluoroacetate]
28 | – | – | 59.3% | > 6.30 | CCc1cnc(N2CCC(c3ccc4oc(-c5ccc(S(C)(=O)=O)cc5F)nc4c3)CC2)nc1 [EXAMPLE-62, 5-[1-(5-ethylpyrimidin-2-yl)piperidin-4-yl]-2-[2-fluoro-4-(methylsulfonyl)phenyl]benzo[d]oxazole]
29 | – | – | 32.1% | – | CC(C)(C)OC(=O)N1CC=C(c2ccc3nc(-c4ccc(S(C)(=O)=O)cc4F)sc3c2)CC1 [EXAMPLE-65, Tert-butyl 4-{2-[2-fluoro-4-(methylsulfonyl)phenyl]benzo[d]thiazol-6-yl}-5,6-dihydropyridine-1(2H)-carboxylate]
30 | – | – | 18.9% | – | CC(C)(C)OC(=O)N1CC=C(c2ccc3sc(-c4ccc(S(C)(=O)=O)cc4F)nc3c2)CC1 [EXAMPLE-66, Tert-butyl 4-{2-[2-fluoro-4-(methylsulfonyl)phenyl]benzo[d]thiazol-5-yl}-5,6-dihydropyridine-1(2H)-carboxylate]
